Literature values in patent US10851223B2, “Use of a cyclodextrin polycondensate or a composition comprising such a polycondensate, as a capturing agent” (BIOSTART, priority 2016, dated 2020).

Settings: octanol/water

| Structure (SMILES) | Log Kow |
| --- | --- |
| Clc1cc(Cl)c(-c2cc(Cl)c(Cl)c(Cl)c2Cl)cc1Cl [PCB 180] | 7.7 |
| CN(C)C(=O)Nc1ccc(Cl)c(Cl)c1 [Diuron] | 2.68 |
| Clc1ccc(-c2ccc(Cl)cc2Cl)cc1 [PCB 28] | 5.62 |
| Clc1cc(Cl)c(-c2ccc(Cl)c(Cl)c2Cl)cc1Cl [PCB 138] | 7.25 |
| Clc1ccc(-c2cc(Cl)c(Cl)cc2Cl)cc1Cl [PCB 118] | 6.84 |
| c1ccc2c(c1)c1cccc3ccc4cccc2c4c31 [benzopyrene] | 6.07 |
| Clc1ccc(Cl)c(-c2cc(Cl)ccc2Cl)c1 [PCB 52] | 6.12 |
| Clc1ccc(Cl)c(-c2cc(Cl)c(Cl)cc2Cl)c1 [PCB 101] | 6.8 |
| CCCCC(CC)COC(=O)c1ccccc1C(=O)OCC(CC)CCCC (stereo not shown) [di(2-ethylhexyl)-phthalate] | 7.6 |
| Clc1cc(Cl)c(-c2cc(Cl)c(Cl)cc2Cl)cc1Cl [PCB 153] | 7.21 |
